From ChEMBL document CHEMBL5380842, “Discovery of a Potent and Selective CCR8 Small Molecular Antagonist IPG7236 for the Treatment of Cancer” (J Med Chem, 2023) come the findings set out here.

For orientation: half-life means the time needed for the level to fall by half in the phase considered. By bioavailability is commonly meant the share of a dose that reaches the circulation, judged against a reference dose that is usually intravenous. One may read the AUC(0-t) as the area under the concentration-time curve up to a stated or last time point. The term IC50 denotes the point on the concentration scale where inhibition reaches its midpoint. What is called clearance is the volume of plasma or blood freed of the substance per unit of time.

Data set [1] in a line: Volume of distribution at steady state in Sprague-Dawley rat at 1 mg/kg, iv. The settings on record: in vivo, read-out: Vdss. It counts as ADME, organism-based.
The nature of data set [2]: Stability in dog liver microsomes assessed as half life. It counts as ADME, Canis lupus familiaris, Microsome. On the technique in general: Liver microsomes are a subcellular fraction often used to study metabolism.
Data set [3] in a line: Stability in mouse hepatocytes assessed as half life. It counts as ADME, cell-based, Hepatocyte.
Data set [4] can be described thus: Oral bioavailability in ICR mouse at 50 mg/kg. The class given is ADME, organism-based. The settings on record: in vivo.
The nature of data set [5]: AUClast in ICR mouse at 50 mg/kg, po. It counts as ADME, organism-based. More on the design: dose 50 mg/kg, route po. Conditions: in vivo.
The target in data set [6] is T1, Cytochrome P450 3A4 (Homo sapiens, UniProt P08684). As to the kind of experiment: Inhibition of CYP3A4-M (unknown origin). The class given is ADME.
The next data set addresses T2, Cytochrome P450 1A2 (Homo sapiens, UniProt P05177).
T2 sequence (P05177 whole entry): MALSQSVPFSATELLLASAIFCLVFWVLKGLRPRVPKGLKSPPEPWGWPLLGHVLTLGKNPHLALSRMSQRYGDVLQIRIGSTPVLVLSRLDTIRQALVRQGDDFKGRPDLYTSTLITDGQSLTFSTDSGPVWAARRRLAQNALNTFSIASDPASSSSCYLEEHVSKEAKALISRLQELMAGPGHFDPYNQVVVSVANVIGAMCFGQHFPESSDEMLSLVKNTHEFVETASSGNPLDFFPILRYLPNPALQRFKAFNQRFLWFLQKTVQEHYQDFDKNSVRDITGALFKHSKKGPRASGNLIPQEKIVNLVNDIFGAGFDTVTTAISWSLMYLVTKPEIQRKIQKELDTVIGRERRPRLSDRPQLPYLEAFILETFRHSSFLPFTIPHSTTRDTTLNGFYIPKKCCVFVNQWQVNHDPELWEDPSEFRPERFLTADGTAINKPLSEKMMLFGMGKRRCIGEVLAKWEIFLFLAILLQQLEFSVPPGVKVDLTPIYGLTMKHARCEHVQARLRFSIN
As to the kind of experiment: Inhibition of CYP1A2 (unknown origin). The class given is ADME.

Data set [7] can be described thus: Clearance in Cynomolgous monkey at 1 mg/kg, iv. Conditions: cynomolgus monkey, in vivo. The class given is ADME, organism-based, Macaca fascicularis.
In data set [8] the target is T1, Cytochrome P450 3A4. Nature of the data set: Inhibition of CYP3A4-T (unknown origin). The class given is ADME.

Structures are written as SMILES.

T1 sequence (P08684 whole entry): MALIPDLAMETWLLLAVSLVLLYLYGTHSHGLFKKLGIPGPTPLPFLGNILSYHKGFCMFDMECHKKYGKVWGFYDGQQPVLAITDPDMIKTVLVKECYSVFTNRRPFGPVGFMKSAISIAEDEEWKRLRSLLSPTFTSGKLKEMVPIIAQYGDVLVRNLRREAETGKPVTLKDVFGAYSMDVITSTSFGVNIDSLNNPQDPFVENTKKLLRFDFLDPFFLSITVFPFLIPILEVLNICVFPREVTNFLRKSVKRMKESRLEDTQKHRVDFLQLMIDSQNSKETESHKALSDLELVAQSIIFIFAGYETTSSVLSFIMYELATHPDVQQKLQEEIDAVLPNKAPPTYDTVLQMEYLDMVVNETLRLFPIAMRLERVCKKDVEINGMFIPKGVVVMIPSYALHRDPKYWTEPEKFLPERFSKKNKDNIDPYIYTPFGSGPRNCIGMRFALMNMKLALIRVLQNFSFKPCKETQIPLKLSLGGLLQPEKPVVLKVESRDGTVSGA

For the compound `Cc1cc(S(=O)(=O)N[C@H](C)C2CCN(C)CC2)ccc1NC(=O)c1ccccc1C`, the Vd in data set [1] stood at 4.4 L/kg. The half-life in data set [2] turned out to be 2.63 h; in data set [3] it was 43.5 h. In data set [4], this compound showed a bioavailability of 65%. For the same compound, the AUC(0-t) in data set [5] was 22100 ng·h/mL. Moreover, the IC50 against Cytochrome P450 3A4 [6], on Cytochrome P450 1A2 and on Cytochrome P450 3A4 [8] was more than 10 µM each time. Moreover, in data set [7], the clearance amounted to 31.1 mL/min/kg.
